Values of other authors in patent publication US4880817A, “O-functionalized derivatives of substituted isoquinolin-3-ols having cardiotonic and/or phosphodiesterase fraction III inhibiting properties and/or renal vasodilating properties” (Ortho Pharmaceutical Corporation, priority 1987, dated 1989).

System: platelet aggregation
Conditions: reported in U.S. Pat. No. 3,870,721; cited from earlier work

SMILES: CC(=O)NC1C(=O)NC(=O)c2ccccc21 (stereo not shown) [4-acetamido-1,2,3,4-tetrahydro 1,3-isoquinolinedione]
- inhibition of platelet aggregation: inhibit platelet aggregation
